Here are results for one compound from US9796674B2, “Benzyl urea derivatives for activating TGF-beta signaling” (THE BOARD OF TRUSTEES OF THE LELAND STANFORD JUNIOR …, priority 2013, dated 2017).

In one data set the test system is Sprague Dawley rats. Description: 7-Day oral gavage dose range finding and toxicokinetic study in rats. The class given is in vivo. Here is the method:
7-Day oral gavage dose range finding and toxicokinetic study of SRI-011381 in male and female Sprague Dawley rats: The objective of this study was to determine maximum tolerated dose (MTD), characterize the potential toxicity, and estimate the dose dependence of exposure to SRI-011381 in adult male and female Sprague Dawley rats following daily oral gavage (po) dose administration for 7 consecutive days. The doses studied were 2, 10, and 50 mg/kg, formulated in 15% Solutol/85% sterile water and administered in the volume of 10 ml/kg.
Species and Strain: Sprague Dawley rat; Route of Administration: Oral (po); Frequency: Daily administration for 7 consecutive days; Dosing Volume: 10 ml/kg; Dose volumes will be calculated based on the animal's most recent body weight; Duration of In-life Phase: 8 days; Endpoints: clinical observations, mortality, body weights, clinical chemistry, hematology, gross pathology, organ weights, histopathology, toxicokinetics.

The next data set deals with N2A-APP-Swe cells. Briefly: Neurotoxicity of macrophage-conditioned medium (MTS assay). Type of data set: cell-based, mouse. The protocol: (§1) FIGS. 4A and 4B present data from experiments in which human macrophages differentiated from THP-1 monocytic cell lines and mouse J774A.1 macrophages were incubated with fibrillar Aβ in the absence or presence of compound (2 or 5 μM) for 24 h. Conditioned medium was harvested and the remaining Aβ was quantified by Aβ ELISA. The collected medium (FIGS. 4C-4D) was added to N2A-APP-Swe cells (mouse Neuro-2A neuroblastoma cells stably expressing Swedish APP695) and incubated for 24 h. Neurotoxicity was quantified by an MTS Assay.
Mouse J774A.1 macrophages and human macrophages that were differentiated from THP-1 monocytic cell lines were treated with fibrillar Aβ42 in the absence or presence of SRI-011382 or its derivative compounds (2, 5, or 10 μM) for 24 h. Conditioned medium was harvested and the remaining Aβ42 that was not phagocytosed by macrophages was quantified by Aβ42 ELISA kit (Invitrogen). Data was normalized to control medium containing the input amount of Aβ42. Neurotoxicity induced by fibrillar Aβ42 in the conditioned medium was then assessed by incubating Neuro-2a neuroblastoma cells with conditioned medium for 24 h followed by MTS-based viability assay. Data was normalized to control cells without fibrillar Aβ42 treatment.
A general note: Tetrazolium dyes change colour on reduction, which living cells bring about.

A short description of data set [1]: Cytotoxicity in VERO cells. Conditions: African green monkey, read-out: LC50 (the source's name). Type of data set: cell-based. Here is the method:
In Vitro Cytotoxicity: The cytotoxicity of SRI-011381 was determined in primary rat hepatocytes and in VERO cells.
Cytotoxicity: In vitro cytotoxicity assays are used to estimate the relative toxicity of test compounds, e.g. a set of chemical analogs prior to efficacy screening. To estimate “basal” toxicity, a cell line such as VERO cells are typically used. Additional factors including drug metabolism can alter the relative toxicity of a compound in vivo. Primary cultures from liver (either laboratory species or human) can be used to assess the relative toxicity of compounds where metabolism may be a factor.

Data set [2] concerns mouse J774A.1 macrophages. Briefly: Fibrillar Aβ clearance by J774A.1 macrophages. Type of data set: cell-based. Conditions: 24 h, 2, 5, or 10 μM. Here is the method:
SRI-011381 promotes Aβ clearance in cell culture: TGF-β1 promotes Aβ clearance in a microglia cell line. To test whether SRI-011381 has similar properties, mouse J774A.1 macrophages and human macrophages differentiated from THP-1 monocytic cell lines were treated with fibrillar Aβ in the absence or presence of compound (2, 5, or 10 μM) for 24 h. Conditioned medium was harvested and the remaining Aβ that was not phagocytosed by macrophages was quantified by Aβ ELISA.
as §1
Mouse J774A.1 macrophages and human macrophages that were differentiated from THP-1 monocytic cell lines were treated with fibrillar Aβ42 in the absence or presence of SRI-011382 or its derivative compounds (2, 5, or 10 μM) for 24 h. Conditioned medium was harvested and the remaining Aβ42 that was not phagocytosed by macrophages was quantified by Aβ42 ELISA kit (Invitrogen). […]

A further data set has as its system FvB wildtype mice. Type of data set: in vivo. Here is the method: Excitotoxic injury model: Mice are injured with kainic acid and treated with different test compounds at two concentrations each to determine if they can reduce neurodegeneration and/or microglial activation. Wildtype mice on the FVB/N genetic background (8-weeks-old) are typically injured with kainic acid (Tocris, Ellisville, Mo.) dissolved in PBS and injected subcutaneously (s.q., 20 mg/kg). Seizure activity is scored from 0 to 5, with 0 corresponding to no behavioral changes and 5 corresponding to constant rearing and falling. Only kainate-injected mice reaching at least stage 3 are used for the studies. On day 5 following injury, mice are anesthetized, transcardially perfused with 0.9% saline, and brains harvested and dissected. One hemi-brain may be fixed for 24 hours in 4% paraformaldehyde and cryoprotected in 30% sucrose. Serial coronal sections (40 μm) can be cut with a freezing microtome (Leica, Allendale, N.J.) and stored in cryoprotective medium. One set of sections, representing different levels of the hippocampus, is used for the various stains. The other hemi-brain is dissected into hippocampus, cortex, thalamus, brain stem, and cerebellum. In this manner, the ability of test compounds to reduce neurodegeneration in kainate-injected mice can be assayed.
SRI-011381 is neuroprotective in a model of acute neurodegeneration: To study the potential neuroprotective effect of SRI-011381 in vivo, FvB wildtype mice were pre-treated with compound or vehicle for 3 days before excitotoxic injury was induced with kainic acid (10 mg/kg, SQ). Mice continued to receive daily injections of compound until they were sacrificed at day 5 after kainic acid injury. Brains were removed, fixed with paraformaldehyde, sectioned into […] sections using a cryomicrotome and stained with cresyl violet, or immunohistochemical methods. Sections for analysis of synaptophysin, MAP2, and NeuN were subjected to blinded confocal quantitative analysis of neurodegeneration.
To study the potential neuroprotective effect of SRI-011381, FvB wild-type mice were pre-treated with compound or vehicle for 3 days before excitotoxic injury was induced with kainic acid (10 mg/kg). Mice continued to receive daily injections of compound until they were sacrificed at day 5 after kainic acid injury. Kainic acid treatment alone caused a roughly 50% lethality in this experiment (lethality greatly varies in this model and is very difficult to control, but survivors from experiments with greater than 25% lethality typically show significant neurodegeneration in the hippocampus).
Brains were removed, fixed with paraformaldehyde, sectioned into […] sections using a cryomicrotome and stained with cresyl violet, or immunohistochemical methods. Sections were analyzed for synaptophysin, MAP2, and NeuN by confocal quantitative analysis of neurodegeneration. All observers were completely blinded to the treatment conditions of the mice.

[3] abbreviates: po 2, 10, 50 mg/kg daily for 7 days.
Setting [4] is: one third of maximum tolerated dose.

Structures are written as SMILES. “Also recorded” adds a separate entry of the source. Where two headings read alike, the source gives them in different places.

Take `O=C(NC1CCCCC1)N(Cc1ccccc1)CC1CCNCC1` [SRI-011381, 1-Benzyl-3-cyclohexyl-1-(piperidin-4-ylmethyl)urea]: in the data set on Sprague Dawley rats (high dose group (50 mg/kg)), the LDH result is given as “significantly lower in male rats of the high dose group”. The “gender related differences in exposure” value in the data set on Sprague Dawley rats (male and female rats) is recorded as “nor were gender related differences observed”. For the same compound, in the data set with Sprague Dawley rats (po 2, 10, 50 mg/kg), the “exposure after 7 doses compared to the first dose” value is “no apparent change in exposure”. Also, in the data set with Sprague Dawley rats (setting [3]), the “alkaline phosphatase (ALP) levels” value is reported as “significantly elevated in all treatment groups in the female rats, though not in males”; the body weight entry is on record as “no statistically significant differences in body weight”; the clinical observations result is recorded as “appeared normal”; the hematology parameters entry is on record as “no significant changes in any hematology parameters”. Besides, the “exposure based on plasma collected 1 h after dose” value in the data set with Sprague Dawley rats (po 2, 10, 50 mg/kg, Day 1 and 7) is on record as “increased in a dose dependent fashion”. For the same compound, the “fibrillar Aβ42-induced neurotoxicity” value in the data set on N2A-APP-Swe cells (medium conditioned by J774A.1 macrophages) is on record as “protect human neuronal cells from fibrillar Aβ42-induced neurotoxicity”. In addition, the “fibrillar Aβ42-induced neurotoxicity” value in the data set on N2A-APP-Swe cells (medium conditioned by THP-1 macrophages) is recorded as “protect human neuronal cells from fibrillar Aβ42-induced neurotoxicity”. Further, the CC50 in data set [1] came out at 167 µM. For the same compound, the “fibrillar Aβ clearance” value in data set [2] is “promoted fibrillar Aβ clearance; also recorded: promoted fibrillar Aβ42 clearance”. The “fibrillar Aβ clearance” value in data set [2] (listed as SRI-11381) is listed as “promote fibrillar Aβ42 clearance”. Moreover, in the data set with FvB wildtype mice (10 mg/kg daily), the “lethality after kainic acid” value was “significant reduction in lethality”. Also, in the data set with FvB wildtype mice (kainic acid 10 mg/kg, day 5), the calbindin loss reduced was determined as 30%; the “neuronal damage reversed or prevented, all neuronal markers” value is reported as “at least 30%”; the “reduction of CD68 expression” value is “more than 20%”. The “lethality after kainic acid” value with FvB wildtype mice (mouse, in vivo, 60 mg/kg) is “increase in lethality”. In the data set on FvB wildtype mice (setting [4]), the “pathology reduced: Cresyl violet” value came out at 54.0%, the “pathology reduced: D68” value stood at 22.5%, the “pathology reduced: MAP-2” value is given as 37.4% and the “pathology reduced: NeuN” value worked out at 36.9%. Further, the “pathology reduced: Synaptophysin” value in the data set with FvB wildtype mice (setting [4]) came to 67.5%. Further, the “neurodegeneration (percentage of rescue)” value in the data set with FvB wildtype mice (systemic administration) is given as “reduces neurodegeneration by 6 markers”.
